The results in this text go back to patent publication US8703711B2, “Ninjurin-1 modulation and uses thereof” (Val-Chum, Limited Partnership, priority 2009, dated 2014).

For experiment [1], the system named is human CD14+ monocytes migrating across human BBB-endothelial cells. The experiment can be described thus: In vitro model of the human BBB (Boyden chamber): CD14+ monocyte migration. The class given is cell-based. Conditions: human Ninj26-37 peptide 0.4 mM on BBB-ECs 1 h before cells; 24 h migration; vs scramble peptide. Here is the method:
In vitro model of the BBB. BBB-ECs grown in primary cultures were used to generate an in vitro model of the human BBB, as published previously (Cayrol et al., Nature Immunol 9(2): 137-45 Epub 2007 Dec. 23). Human BBB-endothelial cells (25×10^3 cells/chamber) were grown in primary culture on 3 μm porous membrane (Becton Dickinson Labware, Franklin Lakes, N.J., USA), coated with 0.5% gelatin (Sigma), in endothelial cell culture media supplemented with 40% ACM, for 4 days to reach confluency. The BBB-endothelial cells were treated with 0.4 mM of scramble peptide (WRGNPGIRWAPH, SEQ ID NO: 12), 0.4 mM of human Ninj26-37 (PARWGWRHGPIN; SEQ ID NO: 5), 10 μg/ml of sheep IgG isotype control or 10 μg/ml of sheep anti-human Ninjurin-1 blocking Ab one hour prior to the addition of the leukocytes. Human ex vivo CD14^+ monocytes, or CD4^+, or CD8^+ lymphocytes were isolated, from consenting healthy donors, as described above. The leukocytes were added to the upper chamber (1×10^6 cells/chamber) and were allowed to migrate across human BBB-endothelial cells for 24 h. The cells that migrated through the BBB-endothelial cells, were recovered from the lower chamber and counted manually. All migration data shown represent at least 3 independent experiments performed in triplicate.

The test system of experiment [2] is SCI mice. The experiment can be described thus: Spinal cord injury (SCI), contusion with Infinite Horizons impactor. Format: in vivo, C57BL/6 mice. The method, then:
Immunofluorescent stainings of human and mouse CNS material. Luxol Fast Blue (LFB) and H&E stainings (Wosik et al., 2007) were performed on human and mouse brain tissue specimens obtained from four MS patients (autopsy) and EAE/SCI animals. Sections showing acute demyelinating lesions and active perivascular mononuclear cell infiltration were selected (8 to 12 blocks per MS donor), and compared to normal-appearing white matter from the same donors (8 blocks per donor) and to non-neurological disease controls (3 donors; 9-11 blocks per donor). Mean age was 49±6 years and disease duration ranged from 3 to 23 years. The cause of death was pneumonia (2), urosepsis (1) and barbiturate intoxication (1). […] Fluorescence was visualized on a Leica™ DM6000 B epifluorescent microscope equipped with a DFC480 digital camera (Leica Microsystems, Wetzlar Germany) or on a Leica™ SP5 confocal microscope. Images were acquired using Openlab™ 4.0.4 (Improvision, Waltham, Mass.) and processed and analyzed with Adobe Photoshop™ CS2 (Adobe, Mountain View, Calif.). Numbers of CD11c+ DCs, F4/80+ macrophages and MHC II+ cells in spinal cord were quantified in pictures of 15 random fields of the spinal cord (two mice per treatment group). […]
Spinal cord injury. […] Locomotor recovery was evaluated in an open-field test using the Basso Mouse Scale (BMS) (Basso D. M. et al., (2006). J Neurotrauma. 23(5): 635-59). […]

The test system of experiment [3] is EAE mice. The experiment can be described thus: Experimental autoimmune encephalomyelitis (EAE) induced with MOG35-55/CFA. Format: in vivo, C57BL/6 mice. Here is the method:
Flow Cytometric analysis of Ninjurin-1 expression. Cells were harvested and resuspended in FACS buffer composed of PBS supplemented with 1% FBS (Biosource-Invitrogen) and 0.1% NaN3 (Sigma). The cells were incubated with HS (Biosource-Invitrogen) to prevent unspecific binding. BBB-endothelial cells and PBMCs were incubated for 1 h at 4° C. with the primary unconjugated monoclonal mouse anti-Ninjurin-1 antibody (20 μg/ml, BD Biosciences), or with the Functional Grade Purified Mouse IgG2a Isotype Control (20 μg/ml, ebioscience, Inc., San Diego, Calif., USA). Cells were then incubated for 30 min at 4° C. with an allophycocyanin (APC)-conjugated goat anti-mouse Ig (2 μg/ml, BD Biosciences) to detect specific binding. Cells were then counter-stained for 30 min at 4° C. with mouse anti-human conjugated antibodies: Human Leukocyte Antigen (HLA)-ABC, Intracellular cell adhesion molecule (ICAM)-1, CD3, CD4, CD8, CD19, HLA-DR, CD14, CD83, CD123, CD209, CD11c or with corresponding isotype controls (all from BD Biosciences). To study the expression of Ninjurin-1 on murine immune cells, the mouse monoclonal anti-Ninjurin-1 antibody was biotinylated, to prevent unspecific binding of the secondary antibody. A buffer exchange was performed with a Slide-A-Lyzer® Dialysis Cassette (3.5-20K Cassettes, Thermo Scientific, Rockford, Ill., USA) to remove glycerol and bovine serum albumin (BSA) from the antibody solution using Melon™ Gel IgG Spin Purification Kit. Biotin was added using the EZ-Link® Micro NHS-PEO4-Biotinylation kit according to the manufacturer's instructions (Thermo Scientific). Murine peripheral blood or CNS mononuclear cells were incubated for 1 h at 4° C. with the primary biotinylated monoclonal mouse anti-Ninjurin-1 antibody (5 μg/ml, BD Biosciences), or with the Biotin-conjugated IgG2a, K isotype control (5 μg/ml, ebioscience). Cells were then incubated for 30 min at 4° C. with secondary antibody […]—APC (2 μg/ml, BD Biosciences). […] Cells were acquired on a BD LSR™ II Flow cytometer and analyzed using the BD FACSDiva™ software (BD Biosciences). […]

Turning to “PARWGWRHGPIN (SEQ ID NO: 5) (listed as Homo sapiens) [human Ninj26-37]”, the “migration of CD14+ monocytes across human BBB-endothelial cells” value in experiment [1] is recorded as “significantly restricts the migration”.
Turning to “PPRWGLRNRPIN (SEQ ID NO: 6) (Peptide corresponding to residues 26 to 37 of human Ninjurin-1) [mouse Ninj26-37]”, the “infiltration of Iba1+ and CD11c+ myeloid cells in the spinal cord of SCI animals” value in experiment [2] (murine Ninj26-37 200 μg i.p. b.i.d. day 1 to 7 after injury, day 7 post-injury, vs control peptide) is recorded as “reduced”. Moreover, in experiment [2] (murine Ninj26-37 200 μg i.p. twice a day, vs control animals), the “clinical scores (Basso mouse scale, BMS) after SCI” value is reported as “reduced”. The “demyelination (tissue damage) and immune cell infiltration in EAE spinal cord, Luxol fast blue-H&E” value in experiment [3] (Ninj26-37 200 μg i.p. twice daily day 3 to 23, vs control group) is “reduction in immune cell infiltration and demyelination”. Further, in experiment [3] (Ninj26-37 200 μg i.p. twice daily, 14 days post-immunization, vs control/scramble), the “infiltrating MHC II+, F4/80+ and CD11c+ myeloid cells in EAE spinal cord, immunofluorescence and cell counts” value is on record as “reduction of infiltrating”. Also, in experiment [3] (mouse Ninj26-37 200 μg i.p. twice a day, day 3 to 23 post-immunization, vs PBS (FIG. 6A) or scramble peptide (FIG. 15)), the “EAE neurological signs, symptoms and clinical scores” value is “significant reduction of the neurological signs, symptoms and clinical scores”.
